Experimental data: a melting point compilation (Tetko et al.; mined from patent text by program, amines drawn as free bases though some values may be those of a salt)

| Structure (SMILES) | melting point [°C] |
| --- | --- |
| COc1cc2nc(-c3cc(C)c(OCC(N)=O)c(C)c3)[nH]c(=O)c2cc1OC | 354 to 356 |
| N#Cc1c(N2CCc3ccccc3CC2)nc(CCOC2CCCCO2)[nH]c1=O (stereo unspecified) | 185 to 187 |
| CN1C2C=C(c3c[nH]c4ccc([N+](=O)[O-])cc34)CC1CC2 (stereo unspecified) | 234 to 236 |
| COc1ccnc(CSc2nc3c(C)c(OC(F)F)c(C)cc3[nH]2)c1C | 190 to 191 |
| COC(CNC(=O)c1ccc(C(=O)N2CCN(c3ncccc3NC(C)C)CC2)nc1)OC | 167 to 169 |
| Fc1ccccc1C1=CCC(=S)Nc2ccc(Cl)cc21 | 179 to 181 |
| CCOC(=O)CCCCC(=O)c1c(CBr)n(C(C)=O)c(=O)n1C(C)=O | 114 to 115 |
| CCOC(=O)C(Cc1ccccc1)NC(=O)N(N(CCCl)S(C)(=O)=O)S(C)(=O)=O (stereo unspecified) | 106 to 107 |
| CCCCCCCCCCCCCCSCC(O)CNCCO (stereo unspecified) | 71.4 to 73.2 |
| Oc1cc(Br)cc(I)c1 | 83 to 84 |
| CN(C)c1ccnc(CO)n1 | 83 to 84 |
| CC(C)(C)C(=O)OCCN(CCOC(=O)C(C)(C)C)C(=O)COC(=O)C(C)(C)C | 51.4 |
| CCCCCCCCCCCCCCCCCCNC(=O)Nc1cccc([N+](=O)[O-])c1 | 102 to 104 |
| CNC(=O)Nc1c2c(nc3sccc13)CCCC2 | 253 to 255 |
| O=C(O)CC1(c2ccc(Cl)c(Cl)c2)CNC(=O)C1 (stereo unspecified) | 191 to 195 |
| COc1cc(OC)nc(-n2c(N)nc3cc(C)ccc32)n1 | > 300 |
| CC(C)(C)c1cc(CC#Cc2ccc(C(=O)O)cc2)cc(C(C)(C)C)c1O | 198 to 199 |
| CNC(=O)NC(=O)C(CC1CCCC1)c1ccc(S(C)(=O)=O)c(C#N)c1 (stereo unspecified) | 237 to 239 |
| Cc1c(C(=O)O)ccc(S(C)(=O)=O)c1S(C)(=O)=O | 192 to 198 |
| C=CCN(CC=C)S(=O)(=O)c1ncn(C(=O)N(CC)CC)n1 | 49 to 51 |

| Structure (SMILES) | melting point [°C] |
| --- | --- |
| N#CCc1cc(N)c(F)cc1Cl | 85 to 86 |
| c1ccc(CSc2cc(SCc3ccccc3)c3ccc4c(SCc5ccccc5)cc(SCc5ccccc5)c5ccc2c3c54)cc1 | 178 to 180 |
| CSc1nc(N)nc(-c2ccc([N+](=O)[O-])o2)n1 | 179 to 181 |
| O=c1c(C(F)(F)F)cn(Cc2ccccc2)c(=O)n1CCCCl | 100 to 101 |
| CSc1nc(C)ccc1NC(=O)CCCCCCCCBr | 80 to 82 |
| COc1ccc(Cl)c(Oc2c(Cl)ncnc2Cl)c1 | 88 to 89 |
| O=c1c2ccccc2nc(CCl)n1-c1ccc(Cl)cc1 | 234 to 235 |
| CC(O)Cn1nc2c3c(cc(N)cc31)CCC2 (stereo unspecified) | 125 to 127 |
| CC(C)S(=O)(=O)c1cc(C#N)c(N)c(OCCc2ccccn2)c1 | 122 to 123 |
| CCC1(CC)CN(C(C)(C)C)C(=O)C(CC)(CC)N1OC(=O)c1ccccc1 | 91 to 93 |
| Cn1ccnc1S(=O)CC(=O)C12CC3CC(CC(C3)C1)C2 (stereo unspecified) | 86 to 89 |
| CCn1c(=O)c(C)cc2cnc(SC)nc21 | 84 to 86 |
| CC(C)Cc1ccc(CCc2cc3c(s2)NC(=O)C(c2ccccc2)N=C3c2ccccc2Cl)cc1 (stereo unspecified) | 201 to 203 |
| CCN(CC)CCNC(=O)c1cc(NS(C)(=O)=O)c(Cl)cc1OC | 123 to 124 |
| CCOC(=O)CCCCn1c(=O)[nH]c2ccc([N+](=O)[O-])cc2c1=O | 173 to 174 |
| CC1=CCC2(C)C(CCC3C4CCC(O)C4(C)CCC32)C1 (stereo unspecified) | 128 to 130 |
| Cn1c(CO)nnc1NCCCOc1cccc(CN2CCCCC2)c1 | 151 to 152 |
| COC(=O)C=C1CN2C(=O)N(c3cc(Cl)cc(Cl)c3)C(=O)C2(Cc2ccc(Br)cc2)C1 (stereo unspecified) | 74.9 |
| O=C1CCCN1C(=O)c1ccc(O)cc1 | 179 to 182 |

Next, values leading:

| melting point [°C] | Structure (SMILES) |
| --- | --- |
| 91 to 93 | FC(F)(F)Oc1cccc(C=Cc2nc(CNc3ccc(CCCCn4ccnn4)cc3)co2)c1 |
| 263 to 264 | O=C1OCc2c(c3cc(-c4ccc(Cl)cc4)ccc3n2Cc2ccccc2)C1=O |
| 122 to 124 | Cc1[nH]c2ccc(CCOS(C)(=O)=O)cc2c1C(=O)OCc1ccccc1 |
| 197 to 199 | CC(=O)N(O)C(C)c1ccc(-c2ccc(OCc3nc4ccccc4s3)cc2)cc1 (stereo unspecified) |
| 160 to 161 | CCOC(=O)c1cccc2nc(OC)n(Cc3ccc(-c4ccccc4C#N)cc3)c12 |
| 98 | CCOC(=O)C(C)Oc1ccc(Oc2cnc3ccc(Cl)cc3c2)cc1 (stereo unspecified) |
| 57 to 58 | COC(=O)CCC(CCCCNS(=O)(=O)c1ccc(Cl)cc1)CCOc1cccnc1 (stereo unspecified) |
| 38 to 39 | NS(=O)(=O)c1ccc(-c2c(-c3ccccc3)noc2COCC(F)(F)C(F)(F)C(F)(F)CO[N+](=O)[O-])cc1 |
| 163 to 164 | O=C1CCOc2ccc(OCc3ccc4ccc(Cl)cc4n3)cc21 |
| 240 to 242 | CCOC(=O)c1cc(=O)c2c(ccc3c4ccccc4c(=O)oc32)o1 |
| 93 | CCOC(=O)CC(CCCNC(=O)c1csc(NC(=O)NCc2ccccc2)n1)c1ccccc1 (racemic) |
| 150 to 160 | Nc1sc(CC(C(=O)O)C(=O)O)cc1C(=O)c1ccccc1Cl |
| 125 to 126 | COCCN1CCn2c1nc(C(=O)O)c(OCc1ccccc1)c2=O |
| 217 to 220 | Cc1cnc(NC(=O)C2c3ccccc3Oc3ccccc32)o1 |
| 175 to 176 | Cc1cn(C(C)(C)C(=O)N(C)C)nc1-c1ccccc1Cl |
| 234 to 236 | O=[N+]([O-])c1cc(C(F)(F)F)ccc1Sc1nc(-c2ccccc2)c(-c2ccccc2)[nH]1 |

| melting point [°C] | Structure (SMILES) |
| --- | --- |
| 83 | OCC1OC(n2cnc3c(Nc4ccccc4)ncnc32)CC1F (stereo unspecified) |
| 113 | Cc1nc(OCc2cccc(C(F)(F)F)c2)c(C(=O)Nc2ccccc2)s1 |
| 164 to 166 | O=C(CCCCc1ncc[nH]1)NNC(=O)N1Cc2ccccc2Oc2ccc(Cl)cc21 |
| 150 to 152 | NC(=O)Cc1csc(-c2cccc(Br)c2)n1 |
| > 300 | Cn1c(=O)c2c(-c3ccccc3)n(-c3cc([N+](=O)[O-])ccc3N)cc2n(C)c1=O |
| 81 to 89 | CC(c1ccc2c(=O)c3ccccc3ccc2c1)C1N(c2ccccc2)CCN1c1ccccc1 (stereo unspecified) |
| 88 to 90 | CCOC(=O)Oc1ccc(S(=O)(=O)N2c3cc(C(F)(F)F)ccc3-n3cccc3C2CC)cc1 (stereo unspecified) |
| 101 to 103 | Clc1ccccc1-n1nnnc1Cl |
| 258 to 259 | CS(=O)(=O)c1ccc(S(=O)(=O)N2CCn3c(c(C(N)=O)c(Cl)c3-c3ccccc3)C2)cc1 |
| 165 to 167 | CCc1cccc(CC)c1NC(=O)NCC1(c2ccccc2)CCCC1 |
| 129 | CCCCCCCCNC(=O)Nc1ccccc1C(=O)NC1CCN(Cc2ccccc2)CC1 |
| 166 | CCc1nc(C)c(Cc2c(O)ccc3ccccc23)[nH]1 |
| 179 | CC1=C(/C=C/C(C)=C/C=C\c2ccc(C(=O)O)cc2)C(C)(C)CCC1 |
| 154 to 156 | Clc1ccc2c(c1)C=C(Cn1ccnc1)c1ccsc1S2 |
| 111 to 115 | CC(C)C[C@@H](C=NNC(N)=O)NC(=O)[C@H](Cc1c[nH]cn1)NC(=O)C(Cc1ccccc1)Cc1ccccc1 |
| 102 | COc1ccccc1NC(=O)c1cccc(CO)c1 |
